Test results taken from ChEMBL document CHEMBL1201862, “PubChem BioAssay data set” (2004).
The source made the active and inactive calls.

How the values were obtained:
[1] = inhibitors of PGC1a acetylation in cells, dose response, cell-based, cherry-picked samples (AID 720514); format: functional;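 further: potency may reflect raised or lowered acetylation signal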
H4 = experiment: Luminescence Cell-Based Dose Response HTS to Identify Activators of 5'UTR Stem-Loop Driven Prion Protein mRNA Translation in H4 Neuroglioblastoma Cells. [Related pubchem assays: 1829 (Project Summary), 1814 (Primary HTS)]; format: functional; details: Homo sapiens
[2] = Luminescence Cell-Based Dose Response HTS to Identify Activators of Luciferase Translation or Activity in H4 […] Cells. [Related pubchem assays: 1829 (Project Summary), 1814 (Primary HTS)]; format: functional
[3] = Luminescence Cell-Based Dose Response to Identify Activators of 5'UTR Stem-Loop Driven Prion Protein mRNA Translation in H4-C Neuroglioblastoma Cells. [Related pubchem assays: 1829 (Project Summary), 1814 (Primary HTS)]; format: functional
[4] = target: T1, Polyadenylate-binding protein 1 (Homo sapiens, UniProt P11940); experiment: PABP1 MLLE–PAM2 interaction inhibitors, dose response, miRNA deadenylation inhibitor project, biochemical, fluorescence polarization, Cy5-PAM2 peptide, secondary (AID 602260); format: functional; details: read-out: IC50_Mean
[5] = Luminescence Cell-Based Dose Response to Identify Activators of Luciferase Translation or Activity in H4-C Neuroglioblastoma Cells. [Related pubchem assays: 1829 (Project Summary), 1814 (Primary HTS)]; format: functional
[6] = target: Oxysterols receptor LXR-beta (Homo sapiens, UniProt P55055); format: functional, cell-based;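 further: Cell-based luminescence dose-response assay of agonist activity at LXR, run as a confirmatory counterscreen to a daf-12 agonist screen; HEK293 cells with Gal4-LXR fusion and GAL4-driven luciferase reporter; agonist potency from rising luciferase signal of a Gal4-LXR reporter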
[7] = target: T1, Polyadenylate-binding protein 1; experiment: PABP1 MLLE–PAM2 binding inhibitor potency, dose response, biochemical, fluorescence polarization, FITC-PAM2 peptide (AID 602259); format: functional; details: read-out: IC50_Mean
[8] = Luminescence Cell-Based Dose Confirmation to Identify Activators of 5'UTR Stem-Loop Driven Alpha-Synuclein mRNA Translation in H4 Neuroglioblastoma Cells. [Related pubchem assays: 1829 (Project Summary), 1814 (Primary HTS)]; format: functional
Estrogen receptor beta [9] = target: T2, Estrogen receptor beta (Homo sapiens, UniProt Q92731); experiment: ERβ–SRC-3 coactivator interaction inhibitors, confirmation, orthogonal assay, biochemical, ELISA, streptavidin-HRP readout (AID 1060)
Estrogen receptor beta [10] = target: T2, Estrogen receptor beta
[11] = target: T3, Low molecular weight phosphotyrosine protein phosphatase (Homo sapiens, UniProt P24666); format: functional; details: read-out: IC50_Mean;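 further: Dose-response confirmation assay measuring inhibition of LMPTP enzyme activity by fluorescence intensity read-out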
T3 sequence (P24666 whole entry): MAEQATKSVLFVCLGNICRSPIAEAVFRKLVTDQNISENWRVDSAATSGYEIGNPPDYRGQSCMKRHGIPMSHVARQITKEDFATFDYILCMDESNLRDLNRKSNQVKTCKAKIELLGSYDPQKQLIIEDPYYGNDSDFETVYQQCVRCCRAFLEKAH

[12] = target: T4, Tyrosine-protein phosphatase non-receptor type 7 (Homo sapiens, UniProt P35236); experiment: inhibitors of human HePTP phosphatase, […], biochemical, absorbance, leukemia target (AID 521); format: functional
T4 sequence (P35236 whole entry): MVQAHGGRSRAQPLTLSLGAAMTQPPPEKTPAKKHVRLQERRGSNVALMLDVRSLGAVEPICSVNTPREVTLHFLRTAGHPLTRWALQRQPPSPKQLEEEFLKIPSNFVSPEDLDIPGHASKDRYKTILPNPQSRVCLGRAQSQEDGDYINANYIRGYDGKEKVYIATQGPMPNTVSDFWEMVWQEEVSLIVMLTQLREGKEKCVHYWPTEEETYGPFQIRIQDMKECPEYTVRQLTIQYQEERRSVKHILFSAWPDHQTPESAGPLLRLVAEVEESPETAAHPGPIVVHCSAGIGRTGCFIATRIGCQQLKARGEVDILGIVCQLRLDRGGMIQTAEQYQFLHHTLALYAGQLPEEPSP

[13] = P. falciparum late gametocyte killing, dose response, luminescence (AID 1117278); format: functional, cell-based;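 further: gametocytes exposed to compound for 24 hours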
[14] = inhibitors of intracellular T. cruzi replication, confirmation, NIH3T3 host cells, beta-gal luminescence (AID 2044); format: functional, cell-based;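 further: intracellular parasites grown in NIH/3T3 mouse fibroblasts as host cells; luminescent beta-galactosidase reporter signal from transgenic T. cruzi replicating inside host cells; inhibitors lower the luminescence signal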
[15] = Jurkat T cell cytotoxicity, dose response, cytotoxicity control for P. falciparum gametocyte viability project, luminescence (AID 1117277); format: functional, cell-based;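 further: potency reflects loss of cellular ATP meaning fewer viable cells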
[16] = cytotoxicity toward NIH3T3 fibroblasts, dose response, counter-screen, cell-based, ATP luminescence, mouse fibroblasts (AID 2010); format: functional;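 further: cells exposed to compound for about 90 hours before reading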
[17] = target: Voltage-dependent T-type calcium channel subunit alpha-1H (Homo sapiens, UniProt O95180); format: functional;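 further: channel activity triggered by adding a high calcium stimulation buffer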
[18] = target: E3 ubiquitin-protein ligase Mdm2 (Homo sapiens, UniProt Q00987); experiment: enhancers of MDM2-luciferase reporter signal, concentration-effect titration, project on inhibitors of MDM2 ubiquitin ligase, cellular assay, luminescent readout, 384-well plate format (AID 1394); format: functional;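 further: MDM2 E3 inhibitors raise luminescence so EC50 is for signal enhancement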
Melanocortin receptor 4 = Melanocortin receptor 4 (Homo sapiens, UniProt P32245); format: functional, cell-based;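 further: Cell-based assay with luminescence read-out, confirmatory dose-response testing for agonist activity of biased ligands at MC4R; human U2OS cells with tagged receptor and beta-arrestin; potency of agonists that increase receptor coupling to beta-arrestin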
Melanocortin receptor 4, sequence (P32245 whole entry): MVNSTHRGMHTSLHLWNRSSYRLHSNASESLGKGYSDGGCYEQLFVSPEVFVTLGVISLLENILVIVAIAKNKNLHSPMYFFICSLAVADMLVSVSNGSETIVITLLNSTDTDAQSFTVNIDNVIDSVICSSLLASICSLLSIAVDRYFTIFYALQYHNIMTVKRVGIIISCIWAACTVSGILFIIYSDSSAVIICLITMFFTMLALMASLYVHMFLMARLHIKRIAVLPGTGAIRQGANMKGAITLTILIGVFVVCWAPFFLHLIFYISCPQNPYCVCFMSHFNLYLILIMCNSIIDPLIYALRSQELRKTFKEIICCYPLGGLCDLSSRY

T2 sequence (Q92731 whole entry): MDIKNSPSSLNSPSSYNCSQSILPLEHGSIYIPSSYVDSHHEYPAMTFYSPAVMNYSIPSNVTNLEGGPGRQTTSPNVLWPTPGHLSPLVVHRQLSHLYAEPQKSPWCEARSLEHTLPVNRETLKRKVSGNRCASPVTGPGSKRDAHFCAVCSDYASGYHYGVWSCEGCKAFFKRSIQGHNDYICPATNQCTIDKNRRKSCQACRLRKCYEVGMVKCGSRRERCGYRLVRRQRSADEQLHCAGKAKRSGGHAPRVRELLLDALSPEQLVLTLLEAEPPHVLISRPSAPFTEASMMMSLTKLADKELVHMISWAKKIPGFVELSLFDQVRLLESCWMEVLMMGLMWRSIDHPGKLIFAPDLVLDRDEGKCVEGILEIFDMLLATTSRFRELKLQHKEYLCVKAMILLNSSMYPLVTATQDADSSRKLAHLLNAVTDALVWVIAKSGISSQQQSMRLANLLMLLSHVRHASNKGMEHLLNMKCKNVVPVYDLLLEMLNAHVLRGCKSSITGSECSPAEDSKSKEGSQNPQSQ
T1 sequence (P11940 whole entry): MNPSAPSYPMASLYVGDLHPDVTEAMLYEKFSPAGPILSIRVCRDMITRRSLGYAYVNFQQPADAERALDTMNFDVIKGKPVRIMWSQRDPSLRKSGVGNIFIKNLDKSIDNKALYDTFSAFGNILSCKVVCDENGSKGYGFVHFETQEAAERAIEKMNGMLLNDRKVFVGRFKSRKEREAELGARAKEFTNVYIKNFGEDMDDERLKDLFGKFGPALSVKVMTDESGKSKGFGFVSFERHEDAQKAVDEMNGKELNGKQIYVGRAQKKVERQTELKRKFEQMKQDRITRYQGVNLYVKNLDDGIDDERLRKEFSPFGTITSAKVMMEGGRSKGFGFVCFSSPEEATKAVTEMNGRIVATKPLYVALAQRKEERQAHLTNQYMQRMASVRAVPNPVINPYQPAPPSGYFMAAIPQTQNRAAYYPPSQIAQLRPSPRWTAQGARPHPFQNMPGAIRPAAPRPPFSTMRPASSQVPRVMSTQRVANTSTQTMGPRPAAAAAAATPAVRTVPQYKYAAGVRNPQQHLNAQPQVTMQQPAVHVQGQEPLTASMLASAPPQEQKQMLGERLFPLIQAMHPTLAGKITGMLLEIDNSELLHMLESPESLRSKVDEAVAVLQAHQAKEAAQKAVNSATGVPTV
Oxysterols receptor LXR-beta, sequence (P55055 whole entry, the tested form may be a part): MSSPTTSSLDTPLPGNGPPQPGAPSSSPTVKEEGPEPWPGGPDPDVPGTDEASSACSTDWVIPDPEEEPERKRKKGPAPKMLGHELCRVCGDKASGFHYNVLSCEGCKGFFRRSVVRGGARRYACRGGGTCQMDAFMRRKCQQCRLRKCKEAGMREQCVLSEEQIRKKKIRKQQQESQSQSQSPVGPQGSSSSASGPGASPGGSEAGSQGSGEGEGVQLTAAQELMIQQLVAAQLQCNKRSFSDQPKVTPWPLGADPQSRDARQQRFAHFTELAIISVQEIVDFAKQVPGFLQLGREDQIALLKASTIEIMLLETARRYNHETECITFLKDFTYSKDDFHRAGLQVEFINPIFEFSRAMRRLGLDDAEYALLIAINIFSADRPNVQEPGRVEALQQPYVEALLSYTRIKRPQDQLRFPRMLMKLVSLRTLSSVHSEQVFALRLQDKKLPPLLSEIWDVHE
Voltage-dependent T-type calcium channel subunit alpha-1H, sequence (O95180 whole entry): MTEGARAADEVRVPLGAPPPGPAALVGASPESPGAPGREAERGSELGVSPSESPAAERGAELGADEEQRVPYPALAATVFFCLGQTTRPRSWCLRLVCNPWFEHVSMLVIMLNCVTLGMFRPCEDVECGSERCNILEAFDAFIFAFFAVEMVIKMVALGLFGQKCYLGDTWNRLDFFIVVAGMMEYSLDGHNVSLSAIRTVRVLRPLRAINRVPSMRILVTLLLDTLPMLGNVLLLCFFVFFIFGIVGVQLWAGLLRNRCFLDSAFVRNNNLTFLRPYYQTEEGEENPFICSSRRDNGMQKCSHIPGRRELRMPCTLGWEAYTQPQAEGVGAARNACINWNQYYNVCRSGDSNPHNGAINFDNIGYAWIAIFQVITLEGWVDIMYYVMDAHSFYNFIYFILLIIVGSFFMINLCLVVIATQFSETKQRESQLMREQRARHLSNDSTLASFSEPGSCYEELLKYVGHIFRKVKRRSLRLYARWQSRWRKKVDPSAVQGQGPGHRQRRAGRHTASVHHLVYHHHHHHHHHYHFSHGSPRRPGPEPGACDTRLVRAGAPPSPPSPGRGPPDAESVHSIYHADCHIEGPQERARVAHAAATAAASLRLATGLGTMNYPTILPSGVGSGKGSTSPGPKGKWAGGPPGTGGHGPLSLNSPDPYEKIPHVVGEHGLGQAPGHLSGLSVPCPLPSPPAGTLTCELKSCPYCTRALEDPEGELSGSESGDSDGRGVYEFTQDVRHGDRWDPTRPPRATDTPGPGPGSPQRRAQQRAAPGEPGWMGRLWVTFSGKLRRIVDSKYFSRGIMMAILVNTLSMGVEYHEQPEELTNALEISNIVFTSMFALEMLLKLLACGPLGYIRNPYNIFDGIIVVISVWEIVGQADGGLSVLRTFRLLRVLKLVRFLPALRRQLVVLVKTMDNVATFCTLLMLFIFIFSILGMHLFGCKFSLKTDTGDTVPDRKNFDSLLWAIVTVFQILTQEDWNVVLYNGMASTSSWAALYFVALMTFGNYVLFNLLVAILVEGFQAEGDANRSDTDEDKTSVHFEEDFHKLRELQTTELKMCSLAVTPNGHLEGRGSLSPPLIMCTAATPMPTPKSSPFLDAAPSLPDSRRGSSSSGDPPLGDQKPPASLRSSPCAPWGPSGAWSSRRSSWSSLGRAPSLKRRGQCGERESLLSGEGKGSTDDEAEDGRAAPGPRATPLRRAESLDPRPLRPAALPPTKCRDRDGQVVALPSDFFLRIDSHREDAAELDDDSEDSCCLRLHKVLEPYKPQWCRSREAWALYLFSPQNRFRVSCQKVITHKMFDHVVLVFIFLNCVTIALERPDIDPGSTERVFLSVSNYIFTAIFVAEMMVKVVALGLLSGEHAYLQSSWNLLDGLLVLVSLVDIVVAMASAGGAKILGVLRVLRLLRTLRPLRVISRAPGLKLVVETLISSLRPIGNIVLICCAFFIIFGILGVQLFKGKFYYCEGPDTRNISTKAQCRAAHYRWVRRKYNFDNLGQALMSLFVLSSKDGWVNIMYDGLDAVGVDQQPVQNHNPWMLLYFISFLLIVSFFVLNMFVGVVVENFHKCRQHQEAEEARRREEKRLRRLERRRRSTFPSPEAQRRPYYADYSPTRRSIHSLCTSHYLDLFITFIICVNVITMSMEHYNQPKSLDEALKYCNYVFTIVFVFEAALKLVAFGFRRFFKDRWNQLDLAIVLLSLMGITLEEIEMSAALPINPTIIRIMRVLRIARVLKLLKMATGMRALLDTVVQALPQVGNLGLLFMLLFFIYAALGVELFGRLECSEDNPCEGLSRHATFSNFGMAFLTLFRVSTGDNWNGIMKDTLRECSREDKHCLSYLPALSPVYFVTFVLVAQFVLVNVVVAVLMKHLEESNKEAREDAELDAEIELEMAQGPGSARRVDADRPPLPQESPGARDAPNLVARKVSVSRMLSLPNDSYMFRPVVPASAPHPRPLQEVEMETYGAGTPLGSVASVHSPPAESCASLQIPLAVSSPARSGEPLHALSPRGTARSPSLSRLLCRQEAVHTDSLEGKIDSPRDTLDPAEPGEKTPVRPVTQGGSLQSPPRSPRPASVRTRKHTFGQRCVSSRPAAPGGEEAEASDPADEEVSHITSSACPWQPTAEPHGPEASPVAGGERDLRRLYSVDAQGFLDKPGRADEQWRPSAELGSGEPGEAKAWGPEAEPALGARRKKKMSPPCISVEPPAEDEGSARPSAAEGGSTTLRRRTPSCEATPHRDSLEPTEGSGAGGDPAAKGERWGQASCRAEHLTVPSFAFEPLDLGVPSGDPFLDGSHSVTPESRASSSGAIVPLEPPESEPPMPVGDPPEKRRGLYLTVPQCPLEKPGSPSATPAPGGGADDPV
E3 ubiquitin-protein ligase Mdm2, sequence (Q00987 whole entry): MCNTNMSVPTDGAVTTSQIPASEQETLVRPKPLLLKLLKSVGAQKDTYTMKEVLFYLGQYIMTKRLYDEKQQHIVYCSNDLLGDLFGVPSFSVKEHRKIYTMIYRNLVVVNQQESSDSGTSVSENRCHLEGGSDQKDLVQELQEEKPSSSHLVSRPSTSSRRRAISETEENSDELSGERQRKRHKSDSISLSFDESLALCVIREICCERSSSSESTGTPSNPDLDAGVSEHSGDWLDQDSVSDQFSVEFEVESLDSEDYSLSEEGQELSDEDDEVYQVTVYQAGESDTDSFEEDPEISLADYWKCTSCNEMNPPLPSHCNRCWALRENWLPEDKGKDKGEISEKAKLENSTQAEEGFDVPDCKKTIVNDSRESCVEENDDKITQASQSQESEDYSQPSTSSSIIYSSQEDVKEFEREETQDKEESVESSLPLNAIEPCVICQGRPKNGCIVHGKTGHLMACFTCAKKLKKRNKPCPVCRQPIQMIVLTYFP

In the case of `COc1ccc(-c2ccc([C@@H]3[C@@H]4CN(Cc5ccccn5)C[C@H]3N4)cc2)cc1`, the AC50 [1] was 28.7 µM (active).

In the case of `Cc1cccnc1NC(=S)NC(=O)c1cccs1`, the EC50 (H4) was 14.9 µM (active), the EC50 [2] was < 0.1 µM (active) and the EC50 [3] was 0.464 µM (active). The IC50 [4] was > 66 µM (inactive), the EC50 [5] was 0.19 µM (active) and the EC50 [6] was > 67.5 µM (inactive). The EC50 (cells) was > 67.5 µM (inactive), the IC50 [7] was > 66 µM (inactive) and the EC50 [8] was 0.161 µM (active).

With `CCc1nc2sc3ccccc3c(=O)c2c(=O)n1Cc1ccco1` the IC50 (Estrogen receptor beta [9]) was 12.6 µM (not active), the IC50 (Estrogen receptor beta [10]) was 6.59 µM (active) and the IC50 [11] was 52.2 µM (inactive). The IC50 [12] was 15.1 µM (active).

In the case of `CC(C)C(Nc1ncnc2c1oc1ccccc12)C(=O)O` (stereo unspecified), the IC50 [13] was > 109 µM (inactive), the EC50 [14] was 12.6 µM (active) and the IC50 [15] was > 83.3 µM (inactive). For the same compound, the EC50 [16] was 10.8 µM (active).

With `COc1ccc(OC)c(NC(=O)C2CCN(Cc3cnn(-c4ccccc4)c3-n3cccc3)CC2)c1` the IC50 [13] was > 109 µM (inactive), the EC50 [17] was 2.48 µM (active) and the IC50 [15] was > 83.3 µM (inactive).

For `Clc1ccccc1/C=N/NC1=Nc2cccc3cccc1c23`, the EC50 [18] was 10.6 µM (not active), the EC50 (Melanocortin receptor 4) was > 89.3 µM (inactive) and the EC50 [6] was > 67.6 µM (inactive). The EC50 (cells) was > 67.6 µM (inactive).

With `C[C@]12CCC(=O)C=C1CCC1C2CC[C@@]2(C)C1CC[C@@]2(O)CC#N` (stereo partly specified) the IC50 (Estrogen receptor beta [10]) was > 50 µM (not active).
